Reference: patent US20050042701A1, “Anti-petasin antibodies, methods for the production thereof and their use” (priority 1998, published 2005)
Read-outs that look alike come from different tables or passages of the source.

Assay: 1st phase clinical test: pharmacokinetics of petasin in serum after single oral administration of tablets containing butterbur extract (open crossover; enzyme immunoassay)
Assay type: in vivo, human (clinically healthy men)
Details: for AUCRest / Cmax / MRT / Tmax / half-life / AUC / AUC(0-t): single oral, mean ± SD; for Petasin serum concentration Mean / concentration at 0 h: 0 h p.a.; for concentration at 0 h / concentration at 0.25 h / concentration at 0.5 h / concentration at 0.75 h / concentration at 1 h / concentration at 1.17 h / concentration at 1.5 h / concentration at 1.833 h / concentration at 2.167 h / concentration at 2.5 h / concentration at 3 h / concentration at 4 h / concentration at 5 h / concentration at 6 h / concentration at 8 h / concentration at 12 h / concentration at 24 h / Cmax / MRT / Tmax / half-life / AUC / AUC(0-t): male, human, serum; for concentration at 0 h / concentration at 0.25 h / concentration at 0.5 h / concentration at 0.75 h / concentration at 1 h / concentration at 1.17 h / concentration at 1.5 h / concentration at 1.833 h / concentration at 2.167 h / concentration at 2.5 h / concentration at 3 h / concentration at 4 h / concentration at 5 h / concentration at 6 h / concentration at 8 h / concentration at 12 h / concentration at 24 h: oral; for concentration at 0.25 h: 0.25 h p.a.; for concentration at 0.5 h: 0.5 h p.a.; for concentration at 0.75 h: 0.75 h p.a.; for concentration at 1 h: 1 h p.a.; for concentration at 1.5 h: 1.5 h p.a.; for concentration at 1.833 h: 1.833 h p.a.; for concentration at 2.167 h: 2.167 h p.a.; for concentration at 2.5 h: 2.5 h p.a.; for concentration at 4 h: 4 h p.a.; for concentration at 5 h: 5 h p.a.; for concentration at 6 h: 6 h p.a.; for concentration at 8 h: 8 h p.a.; for concentration at 12 h: 12 h p.a.; for concentration at 24 h: 24 h p.a.; for AUC: read-out: AUC0-i; for AUC(0-t): read-out: AUC0-t(last)
Protocol: Petasin ovalbumin is adsorptively bound to polystyrene microtitration plates in a concentration of […] in 0.1 M carbonate buffer, pH=9.5, (100 μl/well) for 16 hours at 4° C. and thereupon sucked off. After washing it two times with 300 μl/well washing buffer (PBS, 0.1% Tween 20) it is blocked for 2 hours at room temperature with 150 μl/well blocking solution (0.6% gelatine, 0.02% […] in PBS) and subsequently washed three times with washing buffer.
50 μl of the serum sample to be tested or the respective standard (1:4 dilution in a sample buffer (PBS, 1% BSA, 0.1% Tween 20, 0.01% thiomersal) and 50 μL of an optimized anti-serum dilution in a sample buffer are simultaneously incubated with shaking for 1 hour at room temperature. Subsequently, the microtitration plate is washed three times with 300 μl/well of washing buffer and incubated for 30 min. at room temperature with 100 μl of anti-rabbit immunoglobulin peroxidase conjugate, diluted in sample buffer, and once more washed as above. Thereupon, it is incubated for 10 min. with 100 μl of a substrate solution ready for use (3.3′, 5.5′-tetramethyl benzidine) per well and the reaction is stopped by adding 100 μl/well of 0.5 M sulfuric acid. The evaluation is carried out at 450 nm in a microtitration plate reader.
In a 1st phase of the clinical test for determining the pharmacokinetic parameters of tablets containing butterbur extract was a single oral administrations of 2 or 4 tablets to 24 clinically healthy men at the age between 18 and 40 years.
The open, crossover test was chosen as method, single administration of each dose in a randomized order with an interval of at least 7 days between the administrations.
Model-independent pharmacokinetic parameters for petasin Statistical methods:
ANOVA, ANOVAlog, Wilcoxon-Mann-Whitney test, Wilcoxon-sign order test

[1] = 2 tablets, after administering 2 tablets, read-out: Petasin serum concentration Max.
[2] = 2 tablets, after administering 2 tablets, read-out: Petasin serum concentration Mean
[3] = 2 tablets, after administering 2 tablets, read-out: Petasin serum concentration Min.
[4] = 2 tablets, after administering 2 tablets, read-out: Petasin serum concentration Median
[5] = 4 tablets, after administering 4 tablets, read-out: Petasin serum concentration Max.
[6] = 4 tablets, after administering 4 tablets, read-out: Petasin serum concentration Median
[7] = 4 tablets, after administering 4 tablets, read-out: Petasin serum concentration Min.
[8] = 4 tablets, after administering 4 tablets, read-out: Petasin serum concentration Mean

## C=C(C)C1CC2(C)C(=CC1=O)CCC(OC(=O)/C(C)=C\C)C2C (centres unmarked) [petasin]
2 tablets
  AUCRest: 18.3 ± 7.9%
  Cmax: 25.5 ± 14.8 ng/mL
  MRT: 7.32 ± 3.74 h
  Tmax: 1.62 ± 0.499 h
  half-life: 7.16 ± 4.61 h
  AUC: 79.7 ± 42.3 ng·h/mL
  AUC(0-t): 65.3 ± 35.6 ng·h/mL
2 versus 4 tablets
  Dose dependence of Cmax and AUC: nearly proportional to the dose
4 tablets versus 2 tablets
  Medium maximum petasin concentration (Cmax) after double the dose: nearly doubled
  Medium time of reaching the maximum serum level (tmax) after double the dose: remains constant
4 tablets
  AUCRest: 10.8 ± 4.9%
  Cmax: 58.1 ± 26.7 ng/mL
  MRT: 6.74 ± 2.47 h
  Tmax: 1.61 ± 0.926 h
  half-life: 7.62 ± 3.34 h
  AUC: 168 ± 73.4 ng·h/mL
  AUC(0-t): 151 ± 68.2 ng·h/mL
After administering 4 tablets
  Petasin serum concentration Mean: <1 ng/mL
After administering 4 tablets, listed as Petasin
  Petasin serum concentration Mean: 0.0 ng/mL
After administering 4 tablets, 3 h p.a.
  Petasin serum concentration Max.: 49.0 ng/mL
[1]
  concentration at 0 h: 0 ng/mL
  concentration at 0.25 h: 5.5 ng/mL
  concentration at 0.5 h: 23.3 ng/mL
  concentration at 0.75 h: 23.8 ng/mL
  concentration at 1 h: 29.3 ng/mL
  concentration at 1.5 h: 47.3 ng/mL
  concentration at 1.833 h: 44.3 ng/mL
  concentration at 2.167 h: 31.7 ng/mL
  concentration at 2.5 h: 26.6 ng/mL
  concentration at 4 h: 11.2 ng/mL
  concentration at 5 h: 8.8 ng/mL
  concentration at 6 h: 8.1 ng/mL
  concentration at 8 h: 4.2 ng/mL
  concentration at 12 h: 2.9 ng/mL
  concentration at 24 h: 2.3 ng/mL
[2]
  concentration at 0 h: 0 ng/mL
  concentration at 0.25 h: 2.8 ng/mL
  concentration at 0.5 h: 7.6 ng/mL
  concentration at 0.75 h: 11.9 ng/mL
  concentration at 1 h: 15.6 ng/mL
  concentration at 1.5 h: 19.3 ng/mL
  concentration at 1.833 h: 18.2 ng/mL
  concentration at 2.167 h: 16.3 ng/mL
  concentration at 2.5 h: 13.6 ng/mL
  concentration at 4 h: 4.5 ng/mL
  concentration at 5 h: 4.1 ng/mL
  concentration at 6 h: 3.2 ng/mL
  concentration at 8 h: 1.9 ng/mL
  concentration at 12 h: 1.6 ng/mL
  concentration at 24 h: 1.5 ng/mL
[3]
  concentration at 0 h: 0 ng/mL
  concentration at 0.25 h: 1.1 ng/mL
  concentration at 0.5 h: 1.5 ng/mL
  concentration at 0.75 h: 4 ng/mL
  concentration at 1 h: 4 ng/mL
  concentration at 1.5 h: 5.1 ng/mL
  concentration at 1.833 h: 7.8 ng/mL
  concentration at 2.167 h: 7.3 ng/mL
  concentration at 2.5 h: 5.9 ng/mL
  concentration at 4 h: 1.7 ng/mL
  concentration at 5 h: 1.5 ng/mL
  concentration at 6 h: 1.2 ng/mL
  concentration at 8 h: 1 ng/mL
  concentration at 12 h: 1.1 ng/mL
  concentration at 24 h: 1.1 ng/mL
[4]
  concentration at 0.25 h: 2.2 ng/mL
  concentration at 0.5 h: 5.9 ng/mL
  concentration at 0.75 h: 11 ng/mL
  concentration at 1 h: 14.7 ng/mL
  concentration at 1.5 h: 16.1 ng/mL
  concentration at 1.833 h: 14.7 ng/mL
  concentration at 2.167 h: 14.5 ng/mL
  concentration at 2.5 h: 10.2 ng/mL
  concentration at 4 h: 5.2 ng/mL
  concentration at 5 h: 3.4 ng/mL
  concentration at 6 h: 3.1 ng/mL
  concentration at 8 h: 1.6 ng/mL
  concentration at 12 h: 1.4 ng/mL
  concentration at 24 h: 1.3 ng/mL
2 tablets, after administering 2 tablets, 1.17 h p.a., read-out: Petasin serum concentration Max.
  concentration at 1.17 h: 62.9 ng/mL
2 tablets, after administering 2 tablets, 1.17 h p.a., read-out: Petasin serum concentration Mean
  concentration at 1.17 h: 21 ng/mL
2 tablets, after administering 2 tablets, 1.17 h p.a., read-out: Petasin serum concentration Median
  concentration at 1.17 h: 15.3 ng/mL
2 tablets, after administering 2 tablets, 1.17 h p.a., read-out: Petasin serum concentration Min.
  concentration at 1.17 h: 5.6 ng/mL
2 tablets, after administering 2 tablets, 3 h p.a., read-out: Petasin serum concentration Max.
  concentration at 3 h: 18.3 ng/mL
2 tablets, after administering 2 tablets, 3 h p.a., read-out: Petasin serum concentration Mean
  concentration at 3 h: 8.8 ng/mL
2 tablets, after administering 2 tablets, 3 h p.a., read-out: Petasin serum concentration Median
  concentration at 3 h: 7.7 ng/mL
2 tablets, after administering 2 tablets, 3 h p.a., read-out: Petasin serum concentration Min.
  concentration at 3 h: 3.1 ng/mL
[5]
  concentration at 0 h: 0 ng/mL
  concentration at 0.25 h: 14.9 ng/mL
  concentration at 0.5 h: 96.2 ng/mL
  concentration at 0.75 h: 91.8 ng/mL
  concentration at 1 h: 100 ng/mL
  concentration at 1.5 h: 90.7 ng/mL
  concentration at 1.833 h: 100 ng/mL
  concentration at 2.167 h: 76.1 ng/mL
  concentration at 2.5 h: 40.9 ng/mL
  concentration at 4 h: 20.8 ng/mL
  concentration at 5 h: 81.4 ng/mL
  concentration at 6 h: 14.7 ng/mL
  concentration at 8 h: 15.7 ng/mL
  concentration at 12 h: 5.1 ng/mL
  concentration at 24 h: 2.3 ng/mL
[6]
  concentration at 0 h: < 1 ng/mL
  concentration at 0.25 h: 3.2 ng/mL
  concentration at 0.5 h: 13.7 ng/mL
  concentration at 0.75 h: 23 ng/mL
  concentration at 1 h: 38.1 ng/mL
  concentration at 1.5 h: 32.4 ng/mL
  concentration at 1.833 h: 26.8 ng/mL
  concentration at 2.167 h: 27.5 ng/mL
  concentration at 2.5 h: 26.1 ng/mL
  concentration at 4 h: 8.1 ng/mL
  concentration at 5 h: 7.3 ng/mL
  concentration at 6 h: 5 ng/mL
  concentration at 8 h: 3.1 ng/mL
  concentration at 12 h: 2.5 ng/mL
  concentration at 24 h: 1 ng/mL
[7]
  concentration at 0 h: 0 ng/mL
  concentration at 0.25 h: 1 ng/mL
  concentration at 0.5 h: 1.3 ng/mL
  concentration at 0.75 h: 2.5 ng/mL
  concentration at 1 h: 7.8 ng/mL
  concentration at 1.5 h: 12.2 ng/mL
  concentration at 1.833 h: 13.8 ng/mL
  concentration at 2.167 h: 11.4 ng/mL
  concentration at 2.5 h: 8.4 ng/mL
  concentration at 4 h: 2.9 ng/mL
  concentration at 5 h: 3.2 ng/mL
  concentration at 6 h: 1.6 ng/mL
  concentration at 8 h: 1.4 ng/mL
  concentration at 12 h: 1.3 ng/mL
  concentration at 24 h: 1 ng/mL
[8]
  concentration at 0.25 h: 4.2 ng/mL
  concentration at 0.5 h: 21.2 ng/mL
  concentration at 0.75 h: 28.7 ng/mL
  concentration at 1 h: 36.6 ng/mL
  concentration at 1.5 h: 40.8 ng/mL
  concentration at 1.833 h: 32 ng/mL
  concentration at 2.167 h: 28.9 ng/mL
  concentration at 2.5 h: 24.3 ng/mL
  concentration at 4 h: 9.5 ng/mL
  concentration at 5 h: 12.4 ng/mL
  concentration at 6 h: 5.8 ng/mL
  concentration at 8 h: 3.9 ng/mL
  concentration at 12 h: 2.7 ng/mL
  concentration at 24 h: 1.3 ng/mL
4 tablets, after administering 4 tablets, 1.17 h p.a. (1.167 in Table 3), read-out: Petasin serum concentration Max.
  concentration at 1.17 h: 100 ng/mL
4 tablets, after administering 4 tablets, 1.17 h p.a. (1.167 in Table 3), read-out: Petasin serum concentration Mean
  concentration at 1.17 h: 47.3 ng/mL
4 tablets, after administering 4 tablets, 1.17 h p.a. (1.167 in Table 3), read-out: Petasin serum concentration Median
  concentration at 1.17 h: 43.6 ng/mL
4 tablets, after administering 4 tablets, 1.17 h p.a. (1.167 in Table 3), read-out: Petasin serum concentration Min.
  concentration at 1.17 h: 7.5 ng/mL
4 tablets, after administering 4 tablets, 3 h p.a., read-out: Petasin serum concentration Max.
  concentration at 3 h: 49 ng/mL
4 tablets, after administering 4 tablets, 3 h p.a., read-out: Petasin serum concentration Mean
  concentration at 3 h: 17.9 ng/mL
4 tablets, after administering 4 tablets, 3 h p.a., read-out: Petasin serum concentration Median
  concentration at 3 h: 14.6 ng/mL
4 tablets, after administering 4 tablets, 3 h p.a., read-out: Petasin serum concentration Min.
  concentration at 3 h: 7.2 ng/mL
Single oral administration of 2 or 4 tablets
  Resorption: takes quickly place depending on the dose
